This passage reports Ki and IC50 results from ChEMBL document CHEMBL1135450, “Discovery of phenyl alanine derived ketoamides carrying benzoyl residues as novel calpain inhibitors” (Bioorg Med Chem Lett, 2002).

Where a SMILES comes first, the peptide text is derived from it. [ ]: non-standard residue; d: D form. The star is where a group is joined. ξ: configuration not given here. ξF = NC(Cc1ccccc1)C(=O)O; Cbz = O=C(OCc1ccccc1)*

Usually Ki stands for a dissociation constant, usually derived from enzyme kinetics or from competition with a known ligand. Low values mean higher affinity, high ones lower affinity. Broadly, the IC50 is the concentration at which inhibition is half-maximal.

The target in one test is Procathepsin L (Homo sapiens, UniProt P07711). Put plainly: The compound was evaluated for inhibition of cathepsin L.
Procathepsin L, sequence (P07711 whole entry): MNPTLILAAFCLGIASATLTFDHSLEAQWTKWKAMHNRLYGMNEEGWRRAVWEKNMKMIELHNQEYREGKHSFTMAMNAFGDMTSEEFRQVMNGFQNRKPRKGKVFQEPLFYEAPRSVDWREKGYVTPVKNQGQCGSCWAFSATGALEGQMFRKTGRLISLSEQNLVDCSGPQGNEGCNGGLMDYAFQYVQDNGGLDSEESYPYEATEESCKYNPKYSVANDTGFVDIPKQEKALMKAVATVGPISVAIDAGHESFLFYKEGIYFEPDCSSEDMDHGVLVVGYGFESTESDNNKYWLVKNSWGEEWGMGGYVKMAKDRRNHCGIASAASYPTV
Consider `NC(=O)C(=O)C(Cc1ccccc1)NC(=O)c1ccccc1/C=C/c1ccc2ccccc2c1` (stereo not given), for which the Ki was 6.1 µM.

Test system in a further test: not listed separately
Kind of test: Inhibition of calpain-mediated p60 c-Src degradation in human thrombocytes. Format: functional, cell-based.
`NC(=O)C(=O)C(Cc1ccccc1)NC(=O)c1ccccc1/C=C/c1ccc2ccccc2c1` (stereo not given): half-maximal inhibition (IC50) was put at 1.4 µM.

`CC(C)[C@H](NC(=O)OCc1ccccc1)C(=O)NC(C=O)Cc1ccccc1` (stereo partly drawn) (Cbz-Val-[ξF]-aldehyde) came in with an IC50 of 0.7 µM.

A further test deals with Cathepsin B (Homo sapiens, UniProt P07858). Kind of test: Inhibition of cathepsin B.
The molecule `NC(=O)C(=O)C(Cc1ccccc1)NC(=O)c1ccccc1/C=C/c1ccc2ccccc2c1` (stereo not given) gave an inhibitory constant (Ki) of 0.099 µM.

The target of a further test is T1, Calpain-1 catalytic subunit (Homo sapiens, UniProt P07384).
T1 sequence (P07384 whole entry): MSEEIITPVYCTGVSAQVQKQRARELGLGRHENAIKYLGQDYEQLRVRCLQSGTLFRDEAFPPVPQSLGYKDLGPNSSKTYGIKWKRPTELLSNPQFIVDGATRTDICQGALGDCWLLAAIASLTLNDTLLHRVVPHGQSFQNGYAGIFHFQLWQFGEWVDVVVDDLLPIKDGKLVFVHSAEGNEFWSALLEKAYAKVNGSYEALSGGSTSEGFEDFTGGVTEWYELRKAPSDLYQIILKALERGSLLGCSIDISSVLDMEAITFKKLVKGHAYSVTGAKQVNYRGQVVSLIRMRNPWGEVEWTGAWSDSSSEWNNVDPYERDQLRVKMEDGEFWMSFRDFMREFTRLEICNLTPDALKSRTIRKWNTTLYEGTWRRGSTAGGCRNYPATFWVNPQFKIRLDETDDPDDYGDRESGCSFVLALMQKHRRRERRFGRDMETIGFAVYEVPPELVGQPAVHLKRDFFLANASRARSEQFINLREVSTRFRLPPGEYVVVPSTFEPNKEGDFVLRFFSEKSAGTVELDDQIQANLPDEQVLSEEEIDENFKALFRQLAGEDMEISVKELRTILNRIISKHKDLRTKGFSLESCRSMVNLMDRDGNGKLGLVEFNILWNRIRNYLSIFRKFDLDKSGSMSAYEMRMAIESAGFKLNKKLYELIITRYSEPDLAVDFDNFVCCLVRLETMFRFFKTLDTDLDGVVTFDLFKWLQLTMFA
Kind of test: Inhibition of calpain, using human mu-calpain isolated from erythrocytes and Suc-Leu-Tyr-AMC as the fluorogenic substrate. It is filed as cell-free.
Regarding `O=CC(Cc1ccccc1)NC(=O)c1ccccc1C(=O)c1ccccc1` (stereo not given), the affinity, expressed as Ki, was 0.23 µM. In other words, the sub-micromolar range.

In the case of `O=CC(Cc1ccccc1)NC(=O)c1ccccc1/C=C/c1ccccc1` (stereo not given), the Ki stood at 0.14 µM.

`O=CC(Cc1ccccc1)NC(=O)c1ccccc1` (stereo not given): affinity was put at a Ki of 1.08 µM.

`O=CC(Cc1ccccc1)NC(=O)c1ccccc1OCc1ccc2ccccc2c1` (stereo not given) registered a Ki of 0.05 µM.

`COc1ccc(/C=C/c2ccccc2C(=O)NC(Cc2ccccc2)C(=O)C(N)=O)cc1OC` (stereo not given) came in with a Ki of 0.08 µM.

`O=CC(Cc1ccccc1)NC(=O)c1ccccc1Oc1ccccc1` (stereo not given): affinity was put at a Ki of 0.05 µM.

Molecule `NC(=O)C(=O)C(Cc1ccccc1)NC(=O)c1ccccc1/C=C/c1ccc2ccccc2c1` (stereo not given) yielded a Ki of 0.006 µM.

Consider `O=CC(Cc1ccccc1)NC(=O)c1ccccc1C#Cc1ccccc1` (stereo not given), for which the inhibition constant (Ki) is 0.45 µM. Against the preceding molecule, the Ki is about 75-fold higher.

`O=CC(Cc1ccccc1)NC(=O)c1ccccc1-c1ccccc1` (stereo not given) gave an inhibition constant Ki of 0.09 µM.

Consider `O=CC(Cc1ccccc1)NC(=O)c1ccccc1Cc1ccccc1` (stereo not given), for which the inhibition constant (Ki) came to 0.37 µM.

Regarding `O=CC(Cc1ccccc1)NC(=O)c1ccccc1/C=C/c1ccc2ccccc2c1` (stereo not given), the Ki was 0.015 µM.

For the molecule `O=CC(Cc1ccccc1)NC(=O)c1ccccc1CCc1ccccc1` (stereo not given), the inhibitory constant (Ki) stood at 0.28 µM.

For the molecule `COc1ccc(/C=C/c2ccccc2C(=O)NC(C=O)Cc2ccccc2)cc1OC` (stereo not given), the inhibition constant Ki turned out to be 0.04 µM. Compared with the last molecule, the Ki is about 7-fold lower.

Regarding `O=CC(Cc1ccccc1)NC(=O)c1ccccc1Cc1ccc2ccccc2c1` (stereo not given), the affinity corresponds to a Ki of 0.2 µM.

`O=CC(Cc1ccccc1)NC(=O)c1ccccc1COc1ccccc1` (stereo not given) returned an inhibition constant Ki of 0.45 µM. This Ki lies about 2.2-fold higher than the previous one.

On to `NC(=O)C(=O)C(Cc1ccccc1)NC(=O)c1ccccc1-c1ccccc1` (stereo not given), for which the affinity corresponds to a Ki of 0.04 µM. Against the preceding molecule, the Ki is about 11-fold lower.
